Each compound was assayed on circulating lymphocytes (assay: Lymphopenia assay: measurement of circulating lymphocytes after oral gavage). Conditions: Mus musculus, Lymphocyte, po, mice, oral gavage 0.5 and 5 mg/kg in 30% HPCD, blood 5 and 24 hours after administration; read-out: Lymphopenia (ED50 mg/kg).
Assay type: in vivo, Mice (C57bl/6 male)
Protocol: Measurement of circulating lymphocytes: Compounds were dissolved in 30% HPCD. Mice (C57bl/6 male, 6-10 week-old) were administered 0.5 and 5 mg/kg of a compound via oral gavage. 30% HPCD was included as a negative control.
Blood was collected from the retro-orbital sinus 5 and 24 hours after drug administration under short isoflurane anesthesia. Whole blood samples were subjected to hematology analysis. Peripheral lymphocyte counts were determined using an automated analyzer (HEMAVET™ 3700). Three mice were used to assess the lymphocyte depletion activity of each compound screened.

SMILES | ED50
CC(N)(CO)c1ccc2nc(O[C@H]3CC[C@H](C(C)(C)C)CC3)ccc2c1 (relative stereo) [Example 78, 2-amino-2-(2-(trans-4-tert-butylcyclohexyloxy)quinolin-6-yl)propan-1-ol] | > 5 mg/kg
CC(C)(C)[C@H]1CC[C@H](Oc2ccc3cc([C@](C)(N)CO)ccc3n2)CC1 (single isomer, unassigned) [Example 79A] | > 5 mg/kg
CC(C)(C)[C@H]1CC[C@H](Oc2ccc3cc([C@@](C)(N)CO)ccc3n2)CC1 (single isomer, unassigned) [Example 79] | > 5 mg/kg
CCCCCCCOc1ccc2nc(C(C)(N)CO)ccc2c1 (stereo not shown) [Example 38, 2-amino-2-(6-(heptyloxy)quinolin-2-yl)propan-1-ol] | 0.5 to 5 mg/kg
CCCCCCCOc1ccc2nc([C@@](C)(N)CO)ncc2c1 [Example 50, (R)-2-Amino-2-(6-heptyloxyquinazolin-2-yl)propan-1-ol] | 0.5 to 5 mg/kg
CC(C)(C)[C@H]1CC[C@H](Oc2ccc3nc([C@@](C)(N)CO)ncc3c2C(F)(F)F)CC1 [Example 61, (R)-2-Amino-2-(6-(trans-4-tert-butylcyclohexyloxy)-5-(trifluoromethyl)quinazolin-2-yl)propan-1-ol] | 0.5 to 5 mg/kg
CC(C)(C)[C@H]1CC[C@H](Oc2ccc3c(c2C(F)(F)F)CC[C@H]([C@@](C)(N)CO)C3)CC1 [Example 71, (R)-2-amino-2-((S)-6-(trans-4-tert-butylcyclohexyloxy)-5-(trifluoromethyl)-1,2,3,4-tetrahydronaphthalen-2-yl)propan-1-ol] | < 0.5 mg/kg
CC(C)(C)[C@H]1CC[C@H](Oc2cc3c(cc2C(F)(F)F)C[C@@H]([C@@](C)(N)CO)CC3)CC1 [Example 71A, (R)-2-amino-2-((S)-6-(trans-4-tert-butylcyclohexyloxy)-7-(trifluoromethyl)-1,2,3,4-tetrahydronaphthalen-2-yl)propan-1-ol] | > 5 mg/kg
CCCCCCCOc1ccc2cc(C(C)(N)CO)cnc2c1 (stereo not shown) [Example 91, 2-amino-2-(7-(heptyloxy)quinolin-3-yl)propan-1-ol] | 0.5 to 5 mg/kg
CCCCCCCCc1ccc2nc(C(C)(N)CO)sc2c1 (stereo not shown) [Example 99, 2-amino-2-(6-octylbenzo[d]thiazol-2-yl)propan-1-ol] | > 5 mg/kg
CCCCCCCOc1ccc2cc(C(C)(N)CO)ccc2n1 (stereo not shown) [Example 103, 2-amino-2-(2-(heptyloxy)quinolin-6-yl)propan-1-ol] | 0.5 to 5 mg/kg
NC(CO)(CO)C1CCc2cc(Sc3cccc(OCc4ccccc4)c3)ccc2C1 (stereo not shown) [Example 113, 2-Amino-2-(6-(3-(benzyloxy)phenylthio)-1,2,3,4-tetrahydronaphthalen-2-yl)propane-1,3-diol] | < 0.5 mg/kg

Same assay, conditions: Mus musculus, Lymphocyte, po, read-out: Lymphopenia (ED50 mg/kg)

SMILES | ED50
CC(N)(CO)c1ccc2c(C(F)(F)F)c(O[C@H]3CC[C@H](C(C)(C)C)CC3)ccc2n1 (relative stereo) [Example 21, 2-Amino-2-[6-(trans-4-tert-butyl-cyclohexyloxy)-5-trifluoromethyl-quinolin-2-yl]-propan-1-ol] | < 0.5 mg/kg

Same assay, conditions: mice, oral gavage 0.5 and 5 mg/kg in 30% HPCD, blood 5 and 24 hours after administration

SMILES | Lymphopenia (ED50 mg/kg)
CC(N)(CO)c1ccc2cc(O[C@H]3CC[C@H](C(C)(C)C)CC3)ccc2n1 (relative stereo) [Example 18, 2-Amino-2-[6-(trans-4-tert-butyl-cyclohexyloxy)-quinolin-2-yl]-propan-1-ol] | 0.5 to 5 mg/kg
CC(N)(CO)c1ccc2cc(O[C@H]3CC[C@H](C(C)(C)C)CC3)ccc2n1 (relative stereo) [Example 23, 2-Amino-2-[6-(trans-4-tert-butyl-cyclohexyloxy)-quinolin-2-yl]-propan-1-ol] | <0.5 mg/kg
CC(N)(CO)c1ccc2cc(O[C@H]3CC[C@H](C(C)(C)C)CC3)ccc2n1 (relative stereo) [Example 24, 2-Amino-2-[6-(trans-4-tert-butyl-cyclohexyloxy)-quinolin-2-yl]-propan-1-ol] | >5 mg/kg
CC(N)(CO)c1ccc2c(C(F)(F)F)c(O[C@H]3CC[C@H](C(C)(C)C)CC3)ccc2n1 (relative stereo) [Example 26, 2-Amino-2-[6-(trans-4-tert-butyl-cyclohexyloxy)-5-trifluoromethyl-quinolin-2-yl]-propan-1-ol] | <0.5 mg/kg
CC(N)(CO)c1ccc2c(C(F)(F)F)c(O[C@H]3CC[C@H](C(C)(C)C)CC3)ccc2n1 (relative stereo) [Example 27, 2-Amino-2-[6-(trans-4-tert-butyl-cyclohexyloxy)-5-trifluoromethyl-quinolin-2-yl]-propan-1-ol] | >5 mg/kg

Each compound was assayed against T1, human S1P3 receptor (Homo sapiens, UniProt Q99500) (assay: Calcium mobilization assay, recombinant CHEM cells expressing human S1P3). Conditions: FLIPR.
T1 construct: host or cells: recombinant CHEM cells
T1 sequence (Q99500 whole entry): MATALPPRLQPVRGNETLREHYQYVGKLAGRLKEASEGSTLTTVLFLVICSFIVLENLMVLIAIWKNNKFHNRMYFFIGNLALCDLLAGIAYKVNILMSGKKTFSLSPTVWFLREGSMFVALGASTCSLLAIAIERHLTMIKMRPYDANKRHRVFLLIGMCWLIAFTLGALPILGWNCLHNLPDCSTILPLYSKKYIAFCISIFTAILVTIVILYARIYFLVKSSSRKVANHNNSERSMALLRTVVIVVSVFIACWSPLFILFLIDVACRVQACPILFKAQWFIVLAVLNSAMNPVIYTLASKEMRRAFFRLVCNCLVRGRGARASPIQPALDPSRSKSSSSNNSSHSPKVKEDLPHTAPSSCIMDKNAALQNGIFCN
Assay type: cell-based
Protocol: Compounds that were not specific for the S1P1 receptor, can have activity for other S1P receptor subtypes, e.g., S1P2, S1P3, S1P4, or S1P5, and can cause undesirable side effects. Accordingly, compounds were tested to identify those that were specific for S1P1 activity and had little or no activity, or are antagonists of, S1P3 activity. Accordingly, the test compounds were tested in a calcium mobilization assay to determine agonist activity at either the human S1P1 or human S1P3 receptor, and antagonist activity only at the human S1P3 receptor. The procedure was essentially as described (with modifications described below) in Davis et al. (2005) Journal of Biological Chemistry, vol. 280, pp. 9833-9841, which is incorporated by reference in its entirety. Calcium mobilization assays were performed in recombinant CHEM cells expressing human S1P1 or S1P3 purchased from Millipore (Billerica, Mass.). To detect free intracellular calcium, S1P1 or S1P3 cells were loaded with FLIPR Calcium 4 dye from Molecular Devices (Sunnyvale, Calif.). Cells were imagined for calcium mobilization using a FLIPR^TETRA equipped with a 96-well dispense head.

SMILES | S1P3 agonist activity
CCCCCCCCCCCCC/C=C/[C@@H](O)[C@@H](N)COP(=O)(O)O [Example S1P, Sphingosine 1-phosphate] | full S1P3 agonist
